From patent US11975005B2, “Treatment of respiratory diseases” (TIANLI BIOTECH PTY LTD, priority 2015, dated 2024)

Legend:
[1] = molecular target: T1, ALK5 (Homo sapiens, UniProt P36897); test: ALK5 inhibition (IC50); assay type: biochemical
T1 sequence (P36897 34-503): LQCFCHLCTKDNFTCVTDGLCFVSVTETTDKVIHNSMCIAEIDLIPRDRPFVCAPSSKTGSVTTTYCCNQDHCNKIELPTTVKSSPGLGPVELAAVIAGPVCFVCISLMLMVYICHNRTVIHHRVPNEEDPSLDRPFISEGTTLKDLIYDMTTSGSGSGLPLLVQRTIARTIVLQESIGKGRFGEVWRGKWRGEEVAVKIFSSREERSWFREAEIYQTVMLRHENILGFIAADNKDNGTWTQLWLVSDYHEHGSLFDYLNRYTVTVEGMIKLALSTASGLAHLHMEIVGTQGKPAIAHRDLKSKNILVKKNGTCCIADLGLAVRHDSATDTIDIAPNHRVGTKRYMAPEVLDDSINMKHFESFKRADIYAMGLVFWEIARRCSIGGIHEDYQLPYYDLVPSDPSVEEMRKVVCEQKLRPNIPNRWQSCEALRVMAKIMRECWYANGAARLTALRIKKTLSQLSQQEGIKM

[2] = system: GRE-regulated genes; test: PF670462 aerosol exposure of Balb/C mice, lung gene expression; assay type: in vivo; details: Balb/C female mice; aerosol 0.03-10 mg/ml, 7 min, 24 and 4 hours before harvest
Excerpt: […] and GILZ are known to exert anti-inflammatory actions in by suppression of the master pro-inflammatory transcription factor, NFκB.

[3] = system: primary human airway epithelial cells; test: Dex-induced gene expression in ALI-differentiated primary human airway epithelial cells; assay type: cell-based; details: 3 and 10 μM
Excerpt: The methods used in Examples 1 to 5 (and 10, 19, 20) are similar to those reported in Salem et al 2012 (Br J Pharmacol. 166:2036-2048) and again in Keenan et al 2014 (Respiratory Research, e15:55) in which methods for cell culture, GRE assays and gene expression measurements are fully described. Additional methods for growth of respiratory syncytial virus (RSV) and rhinovirus (RV) are described in Collins et al 2007 (Respir Physiol Neurobiol. 2007 Jun. 15; 156(3):345-52.) and by Xatzipsalti and papdopoulos, 2007 (Contrib Microbiol. 2007; 14:33-41).
These studies were undertaken in ALI-differentiated culture of primary human airway epithelial cells.

Nc1nccc(-c2c(-c3ccc(F)cc3)ncn2C2CCCCC2)n1 [PF670462]
IC50 [1]: 1160 nM
lung expression of GILZ [2]: dose-related increase
lung expression of ZBTB116 [2]: dose-related increase
TGFβ suppression of (Dex 30 nM)-induced expression of SCNNIA [3]: prevented
TGFβ suppression of (Dex 30 nM)-induced expression of ZBTB16 [3]: prevented
